The text below walks through data of PMC10853020 (Journal of medicinal chemistry, 2023).

Usually Ki stands for a measure of affinity in units of concentration, obtained from inhibition or displacement. The low end stands for a stronger hold on the target, the high end for a looser hold on the target.

Series [1] deals with T1, h5-HT2CR (Homo sapiens, UniProt P28335).
T1 sequence (P28335 33-458): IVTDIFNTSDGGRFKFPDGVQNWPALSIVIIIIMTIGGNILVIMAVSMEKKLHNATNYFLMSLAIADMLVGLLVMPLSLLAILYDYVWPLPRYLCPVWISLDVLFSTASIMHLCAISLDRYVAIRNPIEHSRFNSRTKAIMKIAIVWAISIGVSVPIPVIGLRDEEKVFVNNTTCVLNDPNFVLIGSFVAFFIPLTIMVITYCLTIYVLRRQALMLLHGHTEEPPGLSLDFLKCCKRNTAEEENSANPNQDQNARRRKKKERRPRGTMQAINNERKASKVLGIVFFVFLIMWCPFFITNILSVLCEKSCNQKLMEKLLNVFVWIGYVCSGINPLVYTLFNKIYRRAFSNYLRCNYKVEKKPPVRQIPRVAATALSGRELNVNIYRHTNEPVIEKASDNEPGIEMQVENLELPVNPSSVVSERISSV
Briefly: 5-HT-induced Cai^2+ release in h5-HT2CR-CHO cells. In kind it is cell-based. The conditions noted are these: 1 nM.

Series [2] addresses HERG (Homo sapiens, UniProt Q12809). Briefly: NIMH PDSP radioligand binding displacement.
For series [3], the system named is male Sprague–Dawley rats. Description: Novelty-induced. It is filed as in vivo, rat. The conditions noted are these: 30 mg/kg ip, 30 min prior; vs vehicle; p < 0.0001.
The target in series [4] is T2, σ2 receptor (Rattus norvegicus, UniProt Q5U3Y7).
T2 sequence (Q5U3Y7 1-176): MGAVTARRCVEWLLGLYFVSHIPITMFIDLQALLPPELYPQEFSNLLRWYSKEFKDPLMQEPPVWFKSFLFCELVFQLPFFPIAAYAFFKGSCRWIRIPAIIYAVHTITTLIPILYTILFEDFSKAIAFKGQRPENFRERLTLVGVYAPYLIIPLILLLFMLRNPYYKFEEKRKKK
Description: NIMH PDSP radioligand binding displacement.

HERG, sequence (Q12809 whole entry): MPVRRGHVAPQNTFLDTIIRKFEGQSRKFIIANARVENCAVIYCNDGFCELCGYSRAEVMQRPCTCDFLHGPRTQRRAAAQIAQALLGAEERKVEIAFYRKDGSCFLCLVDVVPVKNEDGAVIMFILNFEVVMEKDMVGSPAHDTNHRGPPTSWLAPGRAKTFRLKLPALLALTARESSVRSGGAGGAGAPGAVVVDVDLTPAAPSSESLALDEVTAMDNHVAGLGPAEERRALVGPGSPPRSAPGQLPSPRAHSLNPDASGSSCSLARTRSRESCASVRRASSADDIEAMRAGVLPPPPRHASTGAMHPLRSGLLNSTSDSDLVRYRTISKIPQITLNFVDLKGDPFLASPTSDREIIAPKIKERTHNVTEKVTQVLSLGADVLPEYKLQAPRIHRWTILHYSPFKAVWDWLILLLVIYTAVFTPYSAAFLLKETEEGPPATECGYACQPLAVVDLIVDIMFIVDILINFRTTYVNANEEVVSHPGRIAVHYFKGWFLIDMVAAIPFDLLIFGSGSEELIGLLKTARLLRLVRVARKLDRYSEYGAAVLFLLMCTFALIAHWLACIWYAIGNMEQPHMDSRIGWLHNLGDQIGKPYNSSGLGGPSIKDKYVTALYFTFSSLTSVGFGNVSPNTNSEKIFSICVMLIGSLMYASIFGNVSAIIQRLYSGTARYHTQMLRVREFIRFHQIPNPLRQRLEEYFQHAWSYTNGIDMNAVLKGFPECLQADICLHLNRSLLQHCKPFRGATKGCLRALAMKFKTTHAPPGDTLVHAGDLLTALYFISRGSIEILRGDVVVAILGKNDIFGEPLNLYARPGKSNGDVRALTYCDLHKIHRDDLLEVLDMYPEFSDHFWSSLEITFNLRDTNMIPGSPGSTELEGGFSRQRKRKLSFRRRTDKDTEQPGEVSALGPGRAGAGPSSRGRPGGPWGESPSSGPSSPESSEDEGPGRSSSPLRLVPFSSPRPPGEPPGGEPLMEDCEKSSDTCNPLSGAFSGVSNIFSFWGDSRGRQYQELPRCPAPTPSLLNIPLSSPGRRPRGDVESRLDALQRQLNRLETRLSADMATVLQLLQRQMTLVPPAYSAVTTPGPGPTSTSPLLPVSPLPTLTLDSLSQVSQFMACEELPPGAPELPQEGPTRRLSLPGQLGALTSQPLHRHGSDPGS

Consider `CCCCCCCC/C=C\CCCCCCCC(=O)NCCCO` [Compound 8, N-(3-Hydroxypropyl)oleamide], for which the “5-HT2CR PAM activity” value in series [1] is given as “potentiated 5-HT-evoked Cai^2+ release”.

With `CCCCCCCC/C=C\CCCCCCCC(=O)NC[C@H](O)CO` [Compound 10, (S)-N-(2,3-Dihydroxypropyl)oleamide], the “5-HT2CR PAM activity” value in series [1] is “inactive”.

`CCCCCCCC/C=C\CCCCCCCC(=O)NC(CO)CO` [Compound 11, N-(1,3-Dihydroxypropan-2-yl)oleamide]: the “displacement of binding to the hERG potassium channel” value in series [2] was “did not displace binding”.

As for `CCCCCCCC/C=C\CCCCCCCC(=O)NC(CO)(CO)CO` [Compound 13, N-(1,3-Dihydroxy-2-(hydroxymethyl)propan-2-yl)oleamide], the “total ambulations over a 90 min session” value in series [3] was “significantly reduced total ambulations vs vehicle”. Further, the Ki in series [4] is 3.6 µM.

For `CCCCCCCC/C=C\CCCCCCCC(=O)NCC(OCC)OCC` [Compound 14, N-(2,2-Diethoxyethyl)oleamide], in series [1], the “5-HT2CR PAM activity” value is “did not evoke PAM activity”.
